Several values for one entry are separate records, joined by “and”; a condition that tells them apart may be missing. Equal entries are not always repeated.

The subject of the test is S. Typhimurium GFP reporter counter-screen, fluorescence, 4 h. Description: nmpC-GFP reporter counter-screen in S. Typhimurium, dose response, counter-screen for PhoP regulon inhibitor project, Salmonella Typhimurium, GFP fluorescence (AID 2401).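 Further: S. typhimurium with Mg-insensitive nmpC-GFP reporter grown at 10 µM Mg2+; drop in reporter fluorescence reflects general culture growth inhibition.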
In the case of `O=c1[nH][nH]c(-c2ccccc2O)c1C(C[N+](=O)[O-])c1cccc(Cl)c1` (stereo unspecified), the IC50 was 69.8 µM.
Consider `CCn1c(N)[n+](CC(=O)Nc2ccc(SC(F)F)cc2)c2ccccc21`, for which the half-inhibitory concentration (IC50) is 132 µM.
`Cc1ccc(S(=O)(=O)NC2=NCN(CCOC(=O)c3ccc([N+](=O)[O-])cc3)CN2)cc1`: the IC50 was 145 µM.
Regarding `COc1ccccc1CNCC(O)Cn1c2ccccc2c2ccccc21` (stereo unspecified), the concentration for half-maximal inhibition (IC50) was 92 µM.
As for `Nc1cc(Cl)c2nonc2c1[N+](=O)[O-]`, the figure is 54.1 µM.
As to `CC[C@H]1OC(=O)[C@H](C)[C@@H](O[C@H]2C[C@@](C)(OC)[C@@H](O)[C@H](C)O2)[C@H](C)[C@@H](O[C@@H]2O[C@H](C)C[C@H](N(C)C)[C@H]2O)[C@](C)(O)C[C@@H](C)[C@@H]2N[C@@H](COCCOC)O[C@H]([C@H]2C)[C@]1(C)O`, the half-maximal inhibitory concentration (IC50) is 25.1 µM.
As for `ON=C1/C(=N\O)CC2(C/C1=N/O)OCCO2`, the figure is 98.3 µM.
As for `CCc1ccc(S(=O)(=O)/N=C2/C=C(Sc3ncn[nH]3)C(=O)c3ccccc32)cc1`, the figure is 76.9 µM; as for `Cc1ccc(Nc2nc(NCc3ccco3)c3ccccc3n2)cc1`, 22.2 µM.
Consider `O=c1c2c(-c3ccccc3)csc2nc2c3ccccc3c(NCCN3CCOCC3)nn12`, for which the IC50 is 147 µM.
On to `CCCCCc1ccc(OCCC[n+]2ccccc2)c(CCCCC)c1`, for which the IC50 is 70.1 µM.
In the case of `CCCCCCCCCCOC(=O)Cn1c(COc2cccc(C)c2)[n+](C)c2ccccc21` it was 19.7 µM; in that of `CCn1cc(C(=O)O)c(=O)c2cc(F)c(N3CCN(C(=S)NC(=O)c4ccccc4)CC3)cc21`, 29.8 µM.
Consider `CCCCCCOC(=O)C[N+](C)(C)CCOC1CC2CCC1(C)C2(C)C` (stereo unspecified), for which the IC50 was 31.9 µM.
For `C/C(=N\Nc1nc2ccccc2[nH]1)c1ccccn1`, the IC50 is 22.5 µM.
As for `C#CCOCCOCCOCCNc1nc(N2CCN(C(=O)CCCCCCCCCCNC(=O)[C@H](CCCN=C(N)N)n3cc(C[C@@H](C)CC)nn3)CC2)nc(N2CCN(C(=O)CCCCCCCCCCNC(=O)[C@@H]([C@H](C)CC)n3cc(CCCCCN)nn3)CC2)n1`, the figure is 74.9 µM; as for `Oc1c(C(Nc2ccccn2)c2ccccn2)ccc2cccnc12` (stereo unspecified), 40.2 µM.
Consider `O=C(Nc1cccc(N=Cc2cc(Br)cc(Br)c2O)c1)c1ccco1`, for which the IC50 is 104 µM.
Turning to `CN1CCN(c2c(F)cc3c(=O)c(C(=O)O)cn4c3c2OCN4C)CC1`, the concentration for half-maximal inhibition (IC50) was 0.61 µM.
Regarding `CCCc1cnc(NCCNCC(O)COc2ccc(Cl)c(Cl)c2)nc1` (stereo unspecified), the 50% inhibitory concentration (IC50) was 40.3 µM.
Take `OC(c1cc(-c2ccc(C(F)(F)F)cc2)nc(C(F)(F)F)c1)C1CCCCN1` (stereo unspecified): the IC50 was 29.5 µM.
In the case of `CC(C)Oc1ccc(Cc2cnc(N)nc2N)cc1` it was 34 µM.
On to `O=[N+]([O-])c1cc(Cl)c2cccnc2c1O`, for which the half-inhibitory concentration (IC50) is 1.62 µM.
For `NC1=NC2(CCCCC2)N=C(Nc2ccc(Br)cc2)N1`, the IC50 was 119 µM.
`Cc1cc(C(=O)N/N=C/c2cc(Br)cc([N+](=O)[O-])c2O)c2ccccc2n1`: the IC50 is 109 µM.
As for `COc1c(N2CCN(C(=S)NC3CC4CCC3C4)C(C)C2)c(F)cc2c(=O)c(C(=O)O)cn(C3CC3)c12` (stereo unspecified), the figure is 72.9 µM.
In the case of `CCCCCCNC(=O)c1cn(CC)c2cc(N3CCN(C)CC3)c(F)cc2c1=O`, the half-inhibitory concentration (IC50) was 38.9 µM.
Consider `O=C(N/N=C/c1c[nH]c2ccccc12)c1cc(-c2ccc3ccccc3c2)n[nH]1`, for which the half-inhibitory concentration (IC50) was 47.3 µM.
On to `CCCC(=O)NC(c1cccs1)c1cc([N+](=O)[O-])c2cccnc2c1O` (stereo unspecified), for which the IC50 was 25.8 µM.
Regarding `CCNC(=S)NNC(=O)c1ccccn1`, the IC50 was 36.4 µM.
`C#CCOCCOCCOCCNc1nc(N2CCN(C(=O)CCCCCCCCCCNC(=O)[C@H]([C@@H](C)CC)n3cc(CCCCN=C(N)N)nn3)CC2)nc(N2CCN(C(=O)CCCCCCCCCCNC(=O)[C@H]([C@@H](C)CC)n3cc(CCCCN=C(N)N)nn3)CC2)n1`: the IC50 was 43.4 µM.
In the case of `O=C(NC(CO)C(O)c1ccc([N+](=O)[O-])cc1)C(Cl)Cl` (stereo unspecified) it was 10.1 µM.
As for `Oc1cccc2ccc(Nc3ccccn3)nc12`, the figure is 10.7 µM.
As for `CCc1ccc(-c2nn(-c3ccccc3)cc2CSC(=N)N)cc1`, the figure is 53.1 µM.
Turning to `Fc1ccc(CCNCc2ccc(Cl)c(Cl)c2)cc1`, the half-maximal inhibitory concentration (IC50) is 80.6 µM.
Take `Oc1ccc(/C=N/Nc2ncc(Br)cn2)c(O)c1`: the IC50 is 71.1 µM.
As for `Nc1ncn(C2O[C@H](CO)[C@@H](O)[C@H]2O)c(=O)n1` (stereo partly specified), the figure is 30.8 µM; as for `Cc1cccc(Nc2nc(NCc3ccco3)c3ccccc3n2)c1`, 54.6 µM; as for `Nc1nonc1C(=O)N/N=C/c1cc(Br)ccc1O`, 9.03 µM.
For `O=C(N/N=C/c1ccc(O)cc1O)/C(=C/c1ccccc1)CCO`, the IC50 is 124 µM.
In the case of `CCOC(=O)C1=Nc2ccccc2C1=[N+]=[N-]`, the IC50 is 42.6 µM.
For `C[C@H]1c2cccc(O)c2C(O)=C2C(=O)[C@]3(O)C(O)=C(C(N)=O)C(=O)[C@@H](N(C)C)C3[C@@H](O)C21` (stereo partly specified), the concentration for half-maximal inhibition (IC50) was 2.3 µM.
As for `C[C@H]1O[C@@H](n2cc(F)c(=O)[nH]c2=O)[C@H](O)[C@@H]1O`, the IC50 is 38.6 µM.
For `CSc1ccc2c(c1)C(N1CCN(C)CC1)Cc1ccccc1S2` (stereo unspecified), the IC50 was 87.2 µM.
Take `CCCCCCCCCCOC(=O)Cn1c(COc2ccc(Cl)cc2)[n+](C)c2ccccc21`: the IC50 is 19.5 µM.
On to `O=C(Nc1ccccc1)Nc1ncc([N+](=O)[O-])s1`, for which the half-inhibitory concentration (IC50) was 37.1 µM.
Consider `CN(C)CCCN(C(=O)CCc1ccccc1)c1nc2ccc(Cl)cc2s1`, for which the 50% inhibitory concentration (IC50) is 39 µM.
For the compound `O=C(O)CCN1C(=O)CC(N2C(=O)/C(=C/c3ccc(Cl)cc3)SC2=S)C1=O` (stereo unspecified), the IC50 was 20.6 µM.
As for `CC1CCC(C(C)C)C(OC(=O)Cn2c(COc3ccccc3)[n+](C)c3ccccc32)C1` (stereo unspecified), the 50% inhibitory concentration (IC50) was 40.4 µM.
Regarding `Clc1cc(Br)ccc1OCCCNCc1ccccc1`, the IC50 was 75.6 µM.
Consider `Nc1nc(N2CCN(C/C=C/c3ccccc3)CC2)nc2ccccc12`, for which the IC50 was 107 µM.
Take `Clc1ccc(OCCCNCc2ccccc2)c(Br)c1`: the IC50 is 46.4 µM.
With `O=c1[nH]cc(F)c(=O)[nH]1`, the concentration for half-maximal inhibition (IC50) was 20.5 µM.
Take `Oc1c(C(Nc2cccc(C(F)(F)F)c2)c2cccnc2)ccc2cccnc12` (stereo unspecified): the half-maximal inhibitory concentration (IC50) was 39.3 µM.
On to `CC(C(=O)NC1C=CS(=O)(=O)C1)N1C(=O)/C(=C/c2ccc(Cl)cc2)SC1=S` (stereo unspecified), for which the IC50 is 15.4 µM.
As for `O=Nc1ccc(O)c2ncccc12`, the figure is 61.3 µM; as for `Cc1ccc(C(c2cc(Cl)c3cccnc3c2O)N2CCN(C)CC2)cc1` (stereo unspecified), 33.5 µM; as for `NC(N)=NN=C1CCCCCCCCCCC1`, 77.3 µM.
Consider `OC(c1cc(C(F)(F)F)nc2c(Cl)cc(Cl)cc12)C1CCCCN1` (stereo unspecified), for which the IC50 is 80.5 µM.
Regarding `OCCNCc1c(OCc2ccc(Cl)cc2)ccc2ccccc12`, the IC50 was 90 µM.
As for `Cc1ccc(C(=O)Sc2cccccc2=O)cc1`, the figure is 9.74 µM; as for `Oc1ccc(Cl)cc1Cc1cc(Cl)ccc1O`, 38.6 µM; as for `Cc1[nH]n(-c2ccccc2)c(=O)c1C(C[N+](=O)[O-])c1ccc(F)cc1` (stereo unspecified), 78.8 µM.
Regarding `CC1CCCC(C)N1/N=C/c1c[nH]c2ccc(Br)cc12` (stereo unspecified), the IC50 was 88.9 µM.
Turning to `CO[C@@]1(NC(=O)C2SC(=C(C(N)=O)C(=O)O)S2)C(=O)N2C(C(=O)O)=C(CSc3nnnn3C)CS[C@@H]21` (stereo partly specified), the IC50 is 26.9 µM.
For the compound `Oc1c(CN2CCN(c3ccc(F)cc3)CC2)cc(Cl)c2cccnc12`, the concentration for half-maximal inhibition (IC50) is 19.8 µM.
As for `CCN(CC)c1ccc(/C=N/Nc2nc3ccccc3[nH]2)c(O)c1`, the figure is 33.7 µM; as for `Nc1nc(N)c(Cc2ccc(Cl)cc2Cl)c(N)n1`, 100 µM; as for `O=S1(=O)N=C(N/N=C/c2ccccn2)c2ccccc21`, 19.3 µM.
On to `CN(C)CCCNc1cc(C(C)(C)C)nc2c(-c3ccccc3)cnn12`, for which the half-inhibitory concentration (IC50) was 53.6 µM.
As for `CCn1cc(C(=O)O)c(=O)c2cc(F)c(N3CCN(C(=S)NC(=O)c4ccc(OC)cc4)CC3)cc21`, the figure is 29.4 µM; as for `O=C1c2ccccc2C(=O)c2[nH]c(=O)[nH]c21`, 6.67 µM.
Turning to `CC(Cc1ccccc1)NCc1ccccc1O` (stereo unspecified), the concentration for half-maximal inhibition (IC50) was 28.2 µM.
`Cc1nn(-c2ccccc2)c(N2CCCC2)c1/C=N/Nc1ccc(S(N)(=O)=O)cc1[N+](=O)[O-]`: the 50% inhibitory concentration (IC50) was 88.7 µM.
For `CN1CCN(c2c(F)cc3c(=O)c(C(=O)O)cn4c3c2SCC4)CC1`, the half-maximal inhibitory concentration (IC50) was 8.06 µM and 8.09 µM.
As to `Cc1ccc(-c2csc(NC(=O)C[n+]3cc(-c4ccc(C)cc4)n4c3CCC4)n2)cc1`, the IC50 is 38.4 µM.
Regarding `Cn1cnc([N+](=O)[O-])c1Oc1cccc(O)c1`, the IC50 is 143 µM.
For `O=C(Nc1nc(-c2ccccn2)cs1)c1ccc(Cl)s1`, the IC50 is 28.6 µM.
For `CC(=O)NC(c1cccc([N+](=O)[O-])c1)c1ccc2cccnc2c1O` (stereo unspecified), the IC50 is 47.1 µM.
Take `CCCNC1=C(C)C(=O)C2=C(C1=O)C(COC(N)=O)[C@]1(OC)C3NC3CN21` (stereo partly specified): the half-maximal inhibitory concentration (IC50) is 128 µM.
As for `CCCCCCCCCn1c2c(c(=N)c3c1CCC3)CCC2`, the figure is 37.2 µM.
Regarding `CS(=O)(=O)c1ccc([C@@H](O)[C@@H](CF)NC(=O)C(Cl)Cl)cc1`, the IC50 is 16.6 µM.
Regarding `COc1ccc2[nH]c3c(C)c4ccncc4c(C)c3c2c1`, the IC50 was 20.5 µM.
As for `O=C1C=C(O)c2c(O)cc(O)c(O)c2C1=O`, the figure is 76.8 µM; as for `O=C(N/N=C/c1cc2c3c(c1O)CCCN3CCC2)c1ccccc1O`, 95.3 µM; as for `CCCCCCCCCCCCCCCC[n+]1ccc(/C=N/O)cc1`, 28.7 µM.
On to `CC(C)(C)/C(O)=C/c1nc2cc(Cl)ccc2oc1=O`, for which the IC50 is 65.1 µM.
As to `Oc1cccc(/C=N/NC(=S)Nc2cccnc2)c1O`, the IC50 was 28.5 µM.
`N=c1n(Cc2ccccc2)c2ccccc2n1CC(O)COc1ccc(Cl)cc1Cl` (stereo unspecified): the IC50 was 25.9 µM.
As to `Clc1ccc(CNCc2cccs2)cc1Cl`, the half-maximal inhibitory concentration (IC50) was 76.1 µM.
Consider `O=C1C(=O)c2ccccc2-c2ccccc21`, for which the half-inhibitory concentration (IC50) was 10.7 µM.
In the case of `CCCCCCCCCCOC(=O)Cn1c(COc2ccc(OC)cc2)[n+](C)c2ccccc21`, the IC50 was 21.2 µM and 22.3 µM.
Turning to `CCCOc1ccc(Br)cc1CSC(=N)N`, the IC50 is 134 µM.
In the case of `COC(=O)c1cc(C)nc2c1C(=O)C(=O)C=C2N1CCOCC1` it was 118 µM; in that of `CCn1cc(C(=O)O)c(=O)c2cc(F)c(N3CCN(C(=S)NC(=O)c4ccccc4C)CC3)cc21`, 27.6 µM.
On to `Cc1onc(-c2ccccc2)c1C(=O)NC(=S)NNC(=O)c1ccc(O)cc1O`, for which the IC50 was 119 µM.

The values above are taken from PubChem BioAssay AID2401 (Southern Research Specialized Biocontainment Screening …, 2010).
